#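 These data come from cells grown in 96-well plates and exposed to compound for 48 hours at five concentrations. GI50: concentration for 50% inhibition of growth. At the TGI there is no net growth.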
# Columns and labels:
# Experiment in all cases: NCI-60 cell line screen, 48 h
# 786-0 renal = tested on: 786-0 renal
# A498 renal = tested on: A498 renal
# A549 NSCLC = tested on: A549 NSCLC
# ACHN renal = tested on: ACHN renal
# BT-549 breast = tested on: BT-549 breast
# CAKI-1 renal = tested on: CAKI-1 renal
# CCRF-CEM leukemia = tested on: CCRF-CEM leukemia
# COLO 205 colon = tested on: COLO 205 colon
# DU-145 prostate = tested on: DU-145 prostate
# EKVX NSCLC = tested on: EKVX NSCLC
# HCC-2998 colon = tested on: HCC-2998 colon
# HCT-116 colon = tested on: HCT-116 colon
# HCT-15 colon = tested on: HCT-15 colon
# HL-60(TB) leukemia = tested on: HL-60(TB) leukemia
# HOP-62 NSCLC = tested on: HOP-62 NSCLC
# HOP-92 NSCLC = tested on: HOP-92 NSCLC
# HS 578T breast = tested on: HS 578T breast
# HT29 colon = tested on: HT29 colon
# K-562 leukemia = tested on: K-562 leukemia
# KM12 colon = tested on: KM12 colon
# LOX IMVI melanoma = tested on: LOX IMVI melanoma
# M14 melanoma = tested on: M14 melanoma
# MCF7 breast = tested on: MCF7 breast
# MDA-MB-231 breast = tested on: MDA-MB-231 breast
# MDA-MB-435 = tested on: MDA-MB-435
# MOLT-4 leukemia = tested on: MOLT-4 leukemia
# NCI-H226 lung = tested on: NCI-H226 lung
# NCI-H23 lung = tested on: NCI-H23 lung
# NCI-H460 lung = tested on: NCI-H460 lung
# NCI-H522 lung = tested on: NCI-H522 lung
# NCI/ADR-RES ovarian = tested on: NCI/ADR-RES ovarian
# OVCAR-3 ovarian = tested on: OVCAR-3 ovarian
# OVCAR-5 ovarian = tested on: OVCAR-5 ovarian
# OVCAR-8 ovarian = tested on: OVCAR-8 ovarian
# PC-3 prostate = tested on: PC-3 prostate
# RPMI-8226 leukemia = tested on: RPMI-8226 leukemia
# RXF 393 renal = tested on: RXF 393 renal
# SF-268 CNS = tested on: SF-268 CNS
# SF-295 CNS = tested on: SF-295 CNS
# SF-539 CNS = tested on: SF-539 CNS
# SK-MEL-2 melanoma = tested on: SK-MEL-2 melanoma
# SK-MEL-28 melanoma = tested on: SK-MEL-28 melanoma
# SK-MEL-5 melanoma = tested on: SK-MEL-5 melanoma
# SN12C renal = tested on: SN12C renal
# SNB-19 CNS = tested on: SNB-19 CNS
# SNB-75 CNS = tested on: SNB-75 CNS
# SW-620 colon = tested on: SW-620 colon
# T-47D breast = tested on: T-47D breast
# TK-10 renal = tested on: TK-10 renal
# U251 CNS = tested on: U251 CNS
# UACC-257 melanoma = tested on: UACC-257 melanoma
# UACC-62 melanoma = tested on: UACC-62 melanoma
smiles,measurement,setting,value
Clc1cc(Cl)c(OCC#CI)cc1Cl,GI50,786-0 renal,1.69 µM
same,TGI,786-0 renal,3.39 µM
same,GI50,A498 renal,13.7 µM
same,TGI,A498 renal,26.6 µM
same,GI50,A549 NSCLC,16.8 µM
same,TGI,A549 NSCLC,31.4 µM
same,GI50,ACHN renal,3.01 µM
same,TGI,ACHN renal,12 µM
same,GI50,BT-549 breast,7.21 µM
same,TGI,BT-549 breast,19.8 µM
same,GI50,CAKI-1 renal,1.09 µM
same,TGI,CAKI-1 renal,2.69 µM
same,GI50,CCRF-CEM leukemia,2.88 µM
same,TGI,CCRF-CEM leukemia,> 100 µM
same,GI50,COLO 205 colon,1.57 µM
same,TGI,COLO 205 colon,3.06 µM
same,GI50,DU-145 prostate,3.01 µM
same,TGI,DU-145 prostate,10 µM
same,GI50,EKVX NSCLC,14 µM
same,TGI,EKVX NSCLC,30.2 µM
same,GI50,HCC-2998 colon,19.6 µM
same,TGI,HCC-2998 colon,33.8 µM
same,GI50,HCT-116 colon,1.75 µM
same,TGI,HCT-116 colon,3.47 µM
same,GI50,HCT-15 colon,5.02 µM
same,TGI,HCT-15 colon,23.5 µM
same,GI50,HL-60(TB) leukemia,2 µM
same,TGI,HL-60(TB) leukemia,5.22 µM
same,GI50,HOP-62 NSCLC,4.08 µM
same,TGI,HOP-62 NSCLC,14.2 µM
same,GI50,HOP-92 NSCLC,15.1 µM
same,TGI,HOP-92 NSCLC,37.1 µM
same,GI50,HS 578T breast,16.9 µM
same,TGI,HS 578T breast,50.4 µM
same,GI50,HT29 colon,2.1 µM
same,TGI,HT29 colon,5.66 µM
same,GI50,K-562 leukemia,3.49 µM
same,TGI,K-562 leukemia,18.9 µM
same,GI50,KM12 colon,13.9 µM
same,TGI,KM12 colon,27.5 µM
same,GI50,LOX IMVI melanoma,1.33 µM
same,TGI,LOX IMVI melanoma,2.74 µM
same,GI50,M14 melanoma,2.13 µM
same,TGI,M14 melanoma,5.41 µM
same,GI50,MCF7 breast,1.69 µM
same,TGI,MCF7 breast,3.58 µM
same,GI50,MDA-MB-231 breast,13.5 µM
same,TGI,MDA-MB-231 breast,28 µM
same,GI50,MDA-MB-435,2.02 µM
same,TGI,MDA-MB-435,5.44 µM
same,GI50,MOLT-4 leukemia,2.05 µM
same,TGI,MOLT-4 leukemia,6.11 µM
same,GI50,NCI-H226 lung,19.3 µM
same,TGI,NCI-H226 lung,40.8 µM
same,GI50,NCI-H23 lung,12.6 µM
same,TGI,NCI-H23 lung,26.7 µM
same,GI50,NCI-H460 lung,15.5 µM
same,TGI,NCI-H460 lung,30.9 µM
same,GI50,NCI-H522 lung,1.53 µM
same,TGI,NCI-H522 lung,3.7 µM
same,GI50,NCI/ADR-RES ovarian,2.79 µM
same,TGI,NCI/ADR-RES ovarian,9.66 µM
same,GI50,OVCAR-3 ovarian,1.85 µM
same,TGI,OVCAR-3 ovarian,3.91 µM
same,GI50,OVCAR-5 ovarian,13.7 µM
same,TGI,OVCAR-5 ovarian,27.2 µM
same,GI50,OVCAR-8 ovarian,3.39 µM
same,TGI,OVCAR-8 ovarian,13.1 µM
same,GI50,PC-3 prostate,12.7 µM
same,TGI,PC-3 prostate,27.9 µM
same,GI50,RPMI-8226 leukemia,2.27 µM
same,TGI,RPMI-8226 leukemia,8.38 µM
same,GI50,RXF 393 renal,2.37 µM
same,TGI,RXF 393 renal,6.28 µM
same,GI50,SF-268 CNS,11 µM
same,TGI,SF-268 CNS,23.4 µM
same,GI50,SF-295 CNS,10.4 µM
same,TGI,SF-295 CNS,23.7 µM
same,GI50,SF-539 CNS,2.94 µM
same,TGI,SF-539 CNS,12.8 µM
same,GI50,SK-MEL-2 melanoma,7.98 µM
same,TGI,SK-MEL-2 melanoma,21.3 µM
same,GI50,SK-MEL-28 melanoma,2.12 µM
same,TGI,SK-MEL-28 melanoma,5.14 µM
same,GI50,SK-MEL-5 melanoma,5.93 µM
same,TGI,SK-MEL-5 melanoma,18.9 µM
same,GI50,SN12C renal,10.1 µM
same,TGI,SN12C renal,23 µM
same,GI50,SNB-19 CNS,18.3 µM
same,TGI,SNB-19 CNS,43.9 µM
same,GI50,SNB-75 CNS,6.13 µM
same,TGI,SNB-75 CNS,20 µM
same,GI50,SW-620 colon,1.76 µM
same,TGI,SW-620 colon,3.88 µM
same,GI50,T-47D breast,1.22 µM
same,TGI,T-47D breast,3.01 µM
same,GI50,TK-10 renal,3.45 µM
same,TGI,TK-10 renal,13.2 µM
same,GI50,U251 CNS,15.4 µM
same,TGI,U251 CNS,29.6 µM
same,GI50,UACC-257 melanoma,2.79 µM
same,TGI,UACC-257 melanoma,11.9 µM
same,GI50,UACC-62 melanoma,5.05 µM
same,TGI,UACC-62 melanoma,19.4 µM
